Results on 14 compounds are retold here after ChEMBL document CHEMBL5291721, “A preclinical secondary pharmacology resource illuminates target-adverse drug reaction associations of marketed drugs” (Nat Commun, 2023).

Targets include D(3) dopamine receptor (Homo sapiens, UniProt P35462); Histamine H3 receptor (Homo sapiens, UniProt Q9Y5N1); Mu-type opioid receptor (Homo sapiens, UniProt P35372).
The target of assay [1] is Voltage-dependent L-type calcium channel subunit alpha-1C (Rattus norvegicus, UniProt P22002). Format: functional.
For assay [2], the target named is T1, Cannabinoid receptor 1 (Homo sapiens, UniProt P21554).
For assay [3], the target named is T2, 5-hydroxytryptamine receptor 1A (Homo sapiens, UniProt P08908).
T2 sequence (P08908 whole entry): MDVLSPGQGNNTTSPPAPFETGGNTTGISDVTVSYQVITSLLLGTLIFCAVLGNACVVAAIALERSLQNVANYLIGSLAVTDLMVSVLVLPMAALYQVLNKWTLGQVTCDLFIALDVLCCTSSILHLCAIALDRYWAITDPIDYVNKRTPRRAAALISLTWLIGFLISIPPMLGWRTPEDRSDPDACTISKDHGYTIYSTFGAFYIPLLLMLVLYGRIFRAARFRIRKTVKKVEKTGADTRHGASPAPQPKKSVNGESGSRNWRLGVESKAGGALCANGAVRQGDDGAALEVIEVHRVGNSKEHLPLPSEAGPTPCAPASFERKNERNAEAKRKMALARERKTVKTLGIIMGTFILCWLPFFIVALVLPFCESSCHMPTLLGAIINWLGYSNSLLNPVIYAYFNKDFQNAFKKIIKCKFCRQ
Format: functional, cell-based.

The target in assay [4] is T3, Progesterone receptor (Homo sapiens, UniProt P06401).
T3 sequence (P06401 whole entry): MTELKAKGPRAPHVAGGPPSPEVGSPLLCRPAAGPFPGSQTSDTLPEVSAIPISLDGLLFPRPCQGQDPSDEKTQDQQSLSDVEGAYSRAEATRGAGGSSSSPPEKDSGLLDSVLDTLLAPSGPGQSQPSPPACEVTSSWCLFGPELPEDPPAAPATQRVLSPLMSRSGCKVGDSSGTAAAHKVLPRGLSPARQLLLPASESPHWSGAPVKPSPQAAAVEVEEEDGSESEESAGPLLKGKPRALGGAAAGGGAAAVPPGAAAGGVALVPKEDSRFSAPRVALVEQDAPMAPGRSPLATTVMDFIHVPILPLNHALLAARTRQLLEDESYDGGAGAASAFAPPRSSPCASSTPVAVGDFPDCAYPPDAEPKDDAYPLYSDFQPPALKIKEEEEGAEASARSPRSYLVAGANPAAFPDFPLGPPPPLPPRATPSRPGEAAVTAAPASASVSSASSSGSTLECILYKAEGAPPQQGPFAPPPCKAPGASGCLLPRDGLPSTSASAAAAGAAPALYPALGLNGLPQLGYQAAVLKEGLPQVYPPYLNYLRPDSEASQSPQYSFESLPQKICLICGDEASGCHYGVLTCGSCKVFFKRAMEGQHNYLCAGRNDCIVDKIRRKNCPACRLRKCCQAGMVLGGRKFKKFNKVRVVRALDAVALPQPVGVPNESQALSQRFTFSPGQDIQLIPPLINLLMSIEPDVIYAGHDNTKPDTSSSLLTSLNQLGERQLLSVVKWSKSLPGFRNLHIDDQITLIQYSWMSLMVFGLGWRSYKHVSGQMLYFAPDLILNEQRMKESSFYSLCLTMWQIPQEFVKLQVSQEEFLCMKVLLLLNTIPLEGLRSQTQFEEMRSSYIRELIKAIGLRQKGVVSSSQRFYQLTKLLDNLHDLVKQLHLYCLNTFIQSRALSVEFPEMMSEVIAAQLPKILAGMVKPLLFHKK
Format: functional.

Assay [5] has as its target T3, Progesterone receptor. Format: functional. The source holds these as a separate data set.
Assay [6] addresses T4, Alpha-1A adrenergic receptor (Homo sapiens, UniProt P35348).
T4 sequence (P35348 whole entry): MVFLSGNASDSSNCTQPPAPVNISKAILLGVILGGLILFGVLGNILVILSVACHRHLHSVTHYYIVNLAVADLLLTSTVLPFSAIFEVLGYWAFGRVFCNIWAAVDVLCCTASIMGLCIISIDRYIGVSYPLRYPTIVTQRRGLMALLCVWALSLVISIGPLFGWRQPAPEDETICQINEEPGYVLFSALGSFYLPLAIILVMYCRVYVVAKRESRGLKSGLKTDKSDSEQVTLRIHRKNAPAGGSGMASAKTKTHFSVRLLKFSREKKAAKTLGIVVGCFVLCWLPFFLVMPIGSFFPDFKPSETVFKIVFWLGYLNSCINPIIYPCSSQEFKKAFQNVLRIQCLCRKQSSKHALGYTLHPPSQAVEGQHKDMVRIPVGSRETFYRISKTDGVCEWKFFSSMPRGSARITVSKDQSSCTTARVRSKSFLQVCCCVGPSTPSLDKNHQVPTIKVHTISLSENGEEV
Format: functional, cell-based.

Assay [7] concerns the target T5, Muscarinic acetylcholine receptor M1 (Homo sapiens, UniProt P11229).
T5 sequence (P11229 whole entry): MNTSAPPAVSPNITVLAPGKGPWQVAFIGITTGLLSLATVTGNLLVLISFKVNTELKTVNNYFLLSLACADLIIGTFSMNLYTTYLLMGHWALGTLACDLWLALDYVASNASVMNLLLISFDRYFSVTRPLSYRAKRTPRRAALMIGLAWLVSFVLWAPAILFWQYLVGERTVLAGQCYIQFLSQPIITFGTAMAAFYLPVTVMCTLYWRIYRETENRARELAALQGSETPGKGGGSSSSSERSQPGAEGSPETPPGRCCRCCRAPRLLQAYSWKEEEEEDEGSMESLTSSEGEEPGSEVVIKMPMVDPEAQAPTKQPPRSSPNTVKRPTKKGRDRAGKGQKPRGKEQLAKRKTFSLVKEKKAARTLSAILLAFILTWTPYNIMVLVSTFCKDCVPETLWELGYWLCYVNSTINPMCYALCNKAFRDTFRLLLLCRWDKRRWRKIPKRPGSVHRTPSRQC
Format: functional, cell-based.

For assay [8], the target named is Muscarinic acetylcholine receptor M3 (Homo sapiens, UniProt P20309).
The target in assay [9] is T1, Cannabinoid receptor 1. Format: functional, cell-based.
Assay [10] deals with T1, Cannabinoid receptor 1. Format: functional, cell-based. The source holds these as a separate data set.
For assay [11], the target named is 5-hydroxytryptamine receptor 2B (Homo sapiens, UniProt P41595). Format: functional, cell-based.
Assay [12] has as its target Prostaglandin G/H synthase 1 (Homo sapiens, UniProt P23219). Format: functional.
Note: assay procedure not described here.

T1 sequence (P21554 whole entry): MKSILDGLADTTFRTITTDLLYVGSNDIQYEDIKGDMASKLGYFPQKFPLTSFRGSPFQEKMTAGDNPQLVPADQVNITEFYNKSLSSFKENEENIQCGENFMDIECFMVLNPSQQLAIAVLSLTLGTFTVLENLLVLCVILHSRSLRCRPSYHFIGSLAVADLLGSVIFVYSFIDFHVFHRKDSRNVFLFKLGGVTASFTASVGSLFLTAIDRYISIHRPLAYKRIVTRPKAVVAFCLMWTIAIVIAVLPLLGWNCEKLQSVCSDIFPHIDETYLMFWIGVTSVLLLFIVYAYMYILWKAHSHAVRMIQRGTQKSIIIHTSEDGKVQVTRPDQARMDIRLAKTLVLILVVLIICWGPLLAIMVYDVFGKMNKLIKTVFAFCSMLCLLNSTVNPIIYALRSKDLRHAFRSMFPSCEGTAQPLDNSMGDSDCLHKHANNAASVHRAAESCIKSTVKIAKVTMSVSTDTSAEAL
Chain of 5-hydroxytryptamine receptor 2B (P41595 whole entry): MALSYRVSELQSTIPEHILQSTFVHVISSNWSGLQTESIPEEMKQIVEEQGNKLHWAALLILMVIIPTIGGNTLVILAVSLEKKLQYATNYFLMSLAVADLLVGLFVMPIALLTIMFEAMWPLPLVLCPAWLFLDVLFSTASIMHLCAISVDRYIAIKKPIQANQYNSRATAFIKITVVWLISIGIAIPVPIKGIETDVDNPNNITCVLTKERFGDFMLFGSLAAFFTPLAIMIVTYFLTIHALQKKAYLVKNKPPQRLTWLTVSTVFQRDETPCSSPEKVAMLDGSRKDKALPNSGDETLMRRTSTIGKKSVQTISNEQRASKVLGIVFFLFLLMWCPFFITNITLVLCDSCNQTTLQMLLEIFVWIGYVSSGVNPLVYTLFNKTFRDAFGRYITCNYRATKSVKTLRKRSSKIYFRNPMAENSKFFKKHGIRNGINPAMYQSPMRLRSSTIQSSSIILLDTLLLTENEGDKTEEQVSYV
Chain of Mu-type opioid receptor (P35372 whole entry): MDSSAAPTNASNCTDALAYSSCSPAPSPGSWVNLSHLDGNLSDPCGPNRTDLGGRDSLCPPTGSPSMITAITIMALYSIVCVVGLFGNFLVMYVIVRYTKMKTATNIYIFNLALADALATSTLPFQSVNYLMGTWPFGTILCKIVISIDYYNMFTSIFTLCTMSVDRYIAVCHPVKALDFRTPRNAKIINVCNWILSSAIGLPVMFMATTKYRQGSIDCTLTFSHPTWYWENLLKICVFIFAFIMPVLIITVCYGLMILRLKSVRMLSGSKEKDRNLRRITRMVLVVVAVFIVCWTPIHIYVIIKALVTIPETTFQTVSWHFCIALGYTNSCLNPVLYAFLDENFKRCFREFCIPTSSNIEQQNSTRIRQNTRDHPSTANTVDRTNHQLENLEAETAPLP
Chain of D(3) dopamine receptor (P35462 whole entry): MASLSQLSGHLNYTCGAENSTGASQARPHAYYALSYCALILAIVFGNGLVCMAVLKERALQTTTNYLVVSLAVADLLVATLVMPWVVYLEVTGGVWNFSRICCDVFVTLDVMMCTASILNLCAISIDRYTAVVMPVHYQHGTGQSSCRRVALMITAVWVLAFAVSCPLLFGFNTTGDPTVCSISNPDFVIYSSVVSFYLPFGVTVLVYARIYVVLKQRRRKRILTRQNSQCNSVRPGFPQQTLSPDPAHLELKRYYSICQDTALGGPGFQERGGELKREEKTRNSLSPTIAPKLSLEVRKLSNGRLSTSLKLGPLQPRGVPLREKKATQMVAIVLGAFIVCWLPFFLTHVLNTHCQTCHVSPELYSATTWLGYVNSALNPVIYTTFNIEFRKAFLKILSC
Chain of Muscarinic acetylcholine receptor M3 (P20309 whole entry): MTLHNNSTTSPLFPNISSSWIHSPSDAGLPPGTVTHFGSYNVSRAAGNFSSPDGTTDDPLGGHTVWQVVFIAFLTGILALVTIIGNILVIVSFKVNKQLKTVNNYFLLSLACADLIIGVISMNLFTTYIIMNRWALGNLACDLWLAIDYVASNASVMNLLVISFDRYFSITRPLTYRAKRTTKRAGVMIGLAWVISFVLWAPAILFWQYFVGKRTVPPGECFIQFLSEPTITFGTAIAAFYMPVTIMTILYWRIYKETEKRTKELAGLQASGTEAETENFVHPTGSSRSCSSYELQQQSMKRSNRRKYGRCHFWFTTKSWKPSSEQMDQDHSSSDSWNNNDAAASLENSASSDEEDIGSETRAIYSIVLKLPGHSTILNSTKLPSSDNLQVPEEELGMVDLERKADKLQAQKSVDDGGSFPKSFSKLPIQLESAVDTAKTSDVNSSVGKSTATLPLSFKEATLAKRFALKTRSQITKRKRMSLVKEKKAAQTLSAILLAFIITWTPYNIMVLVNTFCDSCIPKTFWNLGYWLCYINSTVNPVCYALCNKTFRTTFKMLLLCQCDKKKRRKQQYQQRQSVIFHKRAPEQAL
Chain of Voltage-dependent L-type calcium channel subunit alpha-1C (P22002 whole entry): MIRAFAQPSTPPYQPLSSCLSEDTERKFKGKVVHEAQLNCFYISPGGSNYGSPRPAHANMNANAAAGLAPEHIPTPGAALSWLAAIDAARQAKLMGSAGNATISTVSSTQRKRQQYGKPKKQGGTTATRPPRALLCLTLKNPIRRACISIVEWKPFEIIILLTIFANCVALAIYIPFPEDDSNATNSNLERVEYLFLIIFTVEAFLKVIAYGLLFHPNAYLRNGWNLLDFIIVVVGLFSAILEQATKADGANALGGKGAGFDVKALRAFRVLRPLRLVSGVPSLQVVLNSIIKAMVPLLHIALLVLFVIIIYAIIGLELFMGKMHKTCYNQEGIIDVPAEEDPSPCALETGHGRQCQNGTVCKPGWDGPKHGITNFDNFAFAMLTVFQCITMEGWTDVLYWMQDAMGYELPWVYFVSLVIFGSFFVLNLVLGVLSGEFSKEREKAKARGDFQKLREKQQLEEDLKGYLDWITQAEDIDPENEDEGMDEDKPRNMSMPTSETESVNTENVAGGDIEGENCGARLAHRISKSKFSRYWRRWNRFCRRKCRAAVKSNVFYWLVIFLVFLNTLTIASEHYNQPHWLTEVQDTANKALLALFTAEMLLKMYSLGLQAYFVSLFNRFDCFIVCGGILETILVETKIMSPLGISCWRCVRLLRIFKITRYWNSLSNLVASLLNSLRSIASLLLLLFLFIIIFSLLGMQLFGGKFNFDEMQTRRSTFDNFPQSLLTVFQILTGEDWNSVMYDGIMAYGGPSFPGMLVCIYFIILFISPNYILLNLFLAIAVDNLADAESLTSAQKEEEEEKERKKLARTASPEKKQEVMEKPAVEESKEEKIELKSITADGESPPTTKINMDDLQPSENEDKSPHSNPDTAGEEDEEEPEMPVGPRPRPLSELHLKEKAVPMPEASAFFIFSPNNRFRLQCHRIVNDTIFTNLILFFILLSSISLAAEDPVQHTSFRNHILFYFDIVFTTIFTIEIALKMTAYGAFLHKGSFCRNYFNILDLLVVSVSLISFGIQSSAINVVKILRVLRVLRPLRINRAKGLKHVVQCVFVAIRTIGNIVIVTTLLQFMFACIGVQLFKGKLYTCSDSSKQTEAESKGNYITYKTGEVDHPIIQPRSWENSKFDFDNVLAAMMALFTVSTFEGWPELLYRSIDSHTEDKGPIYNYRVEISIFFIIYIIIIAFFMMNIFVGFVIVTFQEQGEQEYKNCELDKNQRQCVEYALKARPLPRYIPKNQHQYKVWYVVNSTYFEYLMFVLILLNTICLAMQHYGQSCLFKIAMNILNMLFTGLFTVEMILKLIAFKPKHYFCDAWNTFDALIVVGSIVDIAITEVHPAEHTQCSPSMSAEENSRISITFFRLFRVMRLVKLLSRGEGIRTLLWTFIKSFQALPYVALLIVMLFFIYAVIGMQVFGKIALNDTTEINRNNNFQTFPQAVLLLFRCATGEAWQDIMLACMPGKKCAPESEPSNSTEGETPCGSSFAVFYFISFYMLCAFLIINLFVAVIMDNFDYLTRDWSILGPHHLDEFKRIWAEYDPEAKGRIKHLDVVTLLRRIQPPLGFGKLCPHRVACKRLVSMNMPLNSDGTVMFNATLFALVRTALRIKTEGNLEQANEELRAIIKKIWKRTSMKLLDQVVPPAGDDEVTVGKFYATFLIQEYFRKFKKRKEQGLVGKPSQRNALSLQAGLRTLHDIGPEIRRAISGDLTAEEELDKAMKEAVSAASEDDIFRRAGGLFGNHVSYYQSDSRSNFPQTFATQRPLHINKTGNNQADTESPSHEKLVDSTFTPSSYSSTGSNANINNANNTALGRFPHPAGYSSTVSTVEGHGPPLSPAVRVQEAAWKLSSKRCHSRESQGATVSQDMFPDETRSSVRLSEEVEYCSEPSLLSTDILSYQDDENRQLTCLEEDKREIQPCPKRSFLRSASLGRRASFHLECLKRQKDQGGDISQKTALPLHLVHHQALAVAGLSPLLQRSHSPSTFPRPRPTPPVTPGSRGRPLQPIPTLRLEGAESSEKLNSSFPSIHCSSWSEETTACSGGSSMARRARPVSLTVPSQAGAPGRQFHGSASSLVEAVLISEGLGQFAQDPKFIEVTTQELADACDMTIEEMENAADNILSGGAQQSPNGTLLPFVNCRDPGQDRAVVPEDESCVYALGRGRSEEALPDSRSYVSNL
Chain of Histamine H3 receptor (Q9Y5N1 whole entry): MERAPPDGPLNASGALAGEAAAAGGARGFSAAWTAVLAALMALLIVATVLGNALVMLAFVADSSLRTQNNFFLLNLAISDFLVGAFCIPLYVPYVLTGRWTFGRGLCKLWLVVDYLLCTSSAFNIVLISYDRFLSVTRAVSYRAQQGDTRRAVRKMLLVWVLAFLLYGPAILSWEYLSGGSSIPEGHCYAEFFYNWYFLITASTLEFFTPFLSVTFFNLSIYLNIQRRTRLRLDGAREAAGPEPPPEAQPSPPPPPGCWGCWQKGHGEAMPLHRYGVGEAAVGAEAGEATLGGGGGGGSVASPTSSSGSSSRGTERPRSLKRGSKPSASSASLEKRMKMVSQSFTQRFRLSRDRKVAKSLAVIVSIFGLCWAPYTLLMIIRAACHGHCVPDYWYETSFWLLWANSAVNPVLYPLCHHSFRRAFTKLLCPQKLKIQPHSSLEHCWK

Take `CCCSc1ccc2nc(NC(=O)OC)[nH]c2c1` [ALBENDAZOLE]: the half-maximal activity concentration (AC50) (in assay [1]; on Cannabinoid receptor 1 [2]; in assay [3]; at Progesterone receptor [4]; at Progesterone receptor [5]) was more than 10 µM in each case.
In the case of `C=CCc1ccccc1OCC(O)CNC(C)C` (centres undefined) [ALPRENOLOL], the AC50 in assay [6] is more than 0.3 µM; in assay [1], more than 30 µM; in assay [7], more than 0.3 µM; in assay [8], more than 30 µM; on Cannabinoid receptor 1 [9] it was more than 30 µM; at Cannabinoid receptor 1 [10], more than 30 µM. The concentration at half-maximal activity (AC50) at D(3) dopamine receptor is more than 0.3 µM; at Histamine H3 receptor it was more than 0.3 µM; in assay [3], 4.8 µM; in assay [11], more than 0.3 µM; at Mu-type opioid receptor, more than 0.3 µM; at Progesterone receptor [4], more than 30 µM. Besides, the AC50 on Progesterone receptor [5] was more than 30 µM; in assay [12], more than 0.3 µM.
For the compound `CN(C)/N=N/c1[nH]cnc1C(N)=O` [DACARBAZINE], the AC50 (in assay [1]; at Cannabinoid receptor 1 [2]; in assay [3]; at Progesterone receptor [4]; at Progesterone receptor [5]) was more than 10 µM in each case.
For `O=C(Cc1ccc(-c2ccccc2)cc1)Nc1ccccn1` [DIFENPIRAMIDE], the AC50 in [6] was more than 10 µM; in assay [7], more than 30 µM; in assay [8], more than 30 µM; at Cannabinoid receptor 1 [9], more than 30 µM; on Cannabinoid receptor 1 [10] it was more than 30 µM; at D(3) dopamine receptor, more than 30 µM. The half-maximal activity concentration (AC50) (on Histamine H3 receptor; in assay [11]; on Mu-type opioid receptor; in assay [12]) was more than 30 µM each time.
Consider `O=C(OCC(O)CO)c1ccccc1Nc1ccnc2cc(Cl)ccc12` (centres undefined) [GLAFENINE], for which the AC50 in assay [6] was 13.5 µM; in assay [7] it was more than 30 µM; in [8], more than 30 µM; on Cannabinoid receptor 1 [9], more than 30 µM; at Cannabinoid receptor 1 [10], more than 30 µM; on D(3) dopamine receptor, more than 30 µM. The AC50 at Histamine H3 receptor was more than 30 µM; in assay [3], more than 30 µM; in assay [11], more than 30 µM; on Mu-type opioid receptor it was 28.7 µM; on Progesterone receptor [4], more than 30 µM; on Progesterone receptor [5], more than 30 µM. In assay [12], this compound gave an AC50 of more than 30 µM.
Regarding `Clc1ccc(C(c2ccccc2Cl)C(Cl)Cl)cc1` (centres undefined) [MITOTANE], the AC50 in [1] was more than 10 µM; on Cannabinoid receptor 1 [2], 12.8 µM; in assay [3], more than 10 µM; at Progesterone receptor [4], 0.45 µM.
With `O=C(CCNNC(=O)c1ccncc1)NCc1ccccc1` [NIALAMIDE], the concentration at half-maximal activity (AC50) (in assay [6]; in [7]; at D(3) dopamine receptor; at Histamine H3 receptor; in assay [11]; at Mu-type opioid receptor) was more than 30 µM in each case. This compound yielded a concentration at half-maximal activity (AC50) in assay [12] of 8.28 µM.
Regarding `CC[C@H]1[C@@H](O)[C@@H]2[C@H](CC[C@]3(C)[C@@H]([C@H](C)CCC(=O)O)CC[C@@H]23)[C@@]2(C)CC[C@@H](O)C[C@@H]12` [OBETICHOLIC ACID], the AC50 (in [6]; in [1]; in assay [7]; in [8]; at Cannabinoid receptor 1 [9]; on Cannabinoid receptor 1 [10]) was more than 30 µM in each case. For the same compound, the AC50 (on D(3) dopamine receptor; on Histamine H3 receptor; in assay [11]; on Mu-type opioid receptor; on Progesterone receptor [4]; at Progesterone receptor [5]) was more than 30 µM in each case. The compound further registered an AC50 in [12] of more than 30 µM.
`CC[N+]1(C)[C@@H]2CC(OC(=O)[C@H](CO)c3ccccc3)C[C@H]1[C@@H]1O[C@@H]12` (some centres undefined) [OXITROPIUM]: the half-maximal activity concentration (AC50) (in [6]; in [7]; at D(3) dopamine receptor; on Histamine H3 receptor; in assay [11]; at Mu-type opioid receptor) was more than 30 µM each time. For the same compound, the AC50 in assay [12] is more than 30 µM.
On to `CC(C)(C)NC[C@H](O)COc1ccccc1C1CCCC1` [PENBUTOLOL], for which the AC50 in [6] is 2.54 µM; in [7], more than 30 µM; on D(3) dopamine receptor, 7.74 µM; at Histamine H3 receptor, more than 30 µM; in [11], more than 30 µM; on Mu-type opioid receptor, 11.9 µM. For the same compound, the half-maximal activity concentration (AC50) in assay [12] was determined as 21.1 µM.
In the case of `CN(C)S(=O)(=O)c1ccc2c(c1)N(CCCN1CCC(CCO)CC1)c1ccccc1S2` [PIPOTIAZINE], the AC50 in assay [6] is 0.0032 µM; in assay [7] it was more than 30 µM; at D(3) dopamine receptor it was 0.003 µM; on Histamine H3 receptor, more than 30 µM; in assay [11] it was more than 30 µM; at Mu-type opioid receptor, 3.4 µM. Further, in assay [12], the AC50 is more than 30 µM.
On to `COCCCN1CCC(NC(=O)c2cc(Cl)c(N)c3c2OCC3)CC1` [PRUCALOPRIDE], for which the concentration at half-maximal activity (AC50) (in [6]; in [7]; in assay [8]; at Cannabinoid receptor 1 [9]; at Cannabinoid receptor 1 [10]; at D(3) dopamine receptor) was more than 30 µM each time. Moreover, the AC50 (at Histamine H3 receptor; in [3]; in [11]; at Mu-type opioid receptor; at Progesterone receptor [4]; on Progesterone receptor [5]) was more than 30 µM in each case. This compound showed a concentration at half-maximal activity (AC50) in [12] of 23.6 µM.
For the compound `CCC(=O)NCC[C@@H]1CCc2ccc3c(c21)CCO3` [RAMELTEON], the concentration at half-maximal activity (AC50) (in assay [6]; in assay [7]; on D(3) dopamine receptor; at Histamine H3 receptor; in assay [11]; on Mu-type opioid receptor) was more than 30 µM in each case. Further, the half-maximal activity concentration (AC50) in assay [12] is more than 30 µM.
For the compound `CCOC(=O)[C@H](CCc1ccccc1)N[C@@H](C)C(=O)N1[C@H](C(=O)O)C[C@H]2CCCC[C@@H]21` [TRANDOLAPRIL], the AC50 (in assay [6]; in [7]; on D(3) dopamine receptor; on Histamine H3 receptor; in [11]; on Mu-type opioid receptor) was more than 30 µM throughout. In addition, in [12], the AC50 was more than 30 µM.

As a reminder, the AC50 is the concentration at which the activity in the assay is half-maximal.
